Measurements published in US5081107A, “Polypeptide compounds” (Imperial Chemical Industries PLC, priority 1988, dated 1992).
Non-standard residues stand in square brackets, D forms with d. Residues, ends and D or L forms follow the SMILES beside them. *: point of attachment. Isonicotinoyl = O=C(c1ccncc1)*; Cbz = O=C(OCc1ccccc1)*

Legend:
[1] = tested on: guinea pig pancreatic acini; conditions: cited from earlier work
[2] = tested on: mouse Swiss 3T3-fibroblast cells; type: cell-based; conditions: 3 h
Description: (b) An in vitro assay which assesses the ability of a test compound to inhibit the Neuromedin C stimulated mitogenesis of mouse Swiss 3T3-fibroblast cells as determined by the uptake of [^3 H]-thymidine. The test is similar to those described by N. Corps., L. Rees and K. Brown, Biochem. Journal, 1985, 231, 781 and I. Zachary and E. Rozengurt, Proc. Nat. Acad. Sci. USA, 1985, 82, 7616, except that GRP (18-27) (0.2 or 0.4nM) was used to stimulate growth and the test compounds were dissolved in an assay medium containing 0.1% bovine serum albumin and 0.4% dimethylsulphoxide and […]

[3] = tested on: bombesin-induced stimulation of the secretion of the enzyme amylase; conditions: rat, in vivo
Description: (c) An in vivo test involving the measurement of the antagonism of the bombesin-induced stimulation of the secretion of the enzyme amylase into the pancreatic duct of the rat by a test compound administered orally, sub-cutaneously or intravenously. Bombesin and the test compound can be administered concomitantly or the test compound can be predosed at any convenient interval, for example 30, 60, 90, 120, 150 or 180 minutes, before bombesin is dosed. Amylase was measured by analysis of the conversion of starch into maltose, on incubation of the starch/amylase mixture at 30° C. for 15 minutes, using a spectrophotometric assay as originally described by P. Bernfield in `Methods in Enzymology` Vol. I, p17 (Editors Colowick and Kaplan, Academic Press, New York, 1955). Bombesin (5 micrograms/kg, intravenously) causes a large, but submaximal, increase of amylase secretion within 30 minutes.

[4] = target: T1, bombesin receptor of mouse Swiss 3T3-fibroblast cells (Mus musculus, UniProt P21729); assay: Test (a): in vitro binding assay, displacement of [I125]GRP; conditions: ambient temperature, 1 hour
T1 construct: the bombesin receptor of mouse Swiss 3T3-fibroblast cells; endogenous in cells; host or cells: mouse Swiss 3T3 fibroblast cells
Description: (a) An in vitro binding assay which assesses the ability of a test compound to displace radiolabelled gastrin releasing peptide ([I^125 ]GRP) from the bombesin receptor of mouse Swiss 3T3-fibroblast cells. The test is similar to that described by I. Zachary and E. Rozengurt, Proc. Nat. Acad. Sci. USA, 1985, 82, 7616, except that the cells are incubated at ambient temperature for 1 hour;

[5] = tested on: bombesin-induced hypothermia; conditions: rat; cited from earlier work

T1 sequence (P21729 whole entry): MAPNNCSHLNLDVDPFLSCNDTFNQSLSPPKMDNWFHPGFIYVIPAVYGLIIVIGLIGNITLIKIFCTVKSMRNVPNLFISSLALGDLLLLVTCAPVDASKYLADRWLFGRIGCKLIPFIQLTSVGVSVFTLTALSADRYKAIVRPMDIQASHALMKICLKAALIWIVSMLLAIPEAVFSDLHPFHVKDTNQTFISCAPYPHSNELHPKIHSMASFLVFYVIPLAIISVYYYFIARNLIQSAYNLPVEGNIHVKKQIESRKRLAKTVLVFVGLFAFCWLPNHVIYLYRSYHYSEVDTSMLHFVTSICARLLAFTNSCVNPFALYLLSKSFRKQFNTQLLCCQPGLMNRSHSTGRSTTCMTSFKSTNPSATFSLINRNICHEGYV

IC50 in test (c) [3] | Compound | inhibition of bombesin-stimulated secretion of amylase [1] | IC50 [2] | also measured
 | [D--Phe^12, Leu^14 ]bombesin | inhibited |  | 
< 0.02 mg/kg | CNC(=O)[C@H](CC(C)C)NC(=O)[C@H](CCCCNC(=O)OCc1ccccc1)NC(=O)[C@@H](C)NC(=O)[C@@H](NC(=O)[C@H](C)NC(=O)[C@H](Cc1c[nH]c2ccccc12)NC(=O)[C@H](Cc1c[nH]cn1)NC(=O)c1ccncc1)C(C)C [4-Pyridyl-CO--His--Trp--Ala--Val--D-Ala--Lys(Z)--Leu--NHMe] (Isonicotinoyl-HWAV[dA]K(Cbz)L-NHMe) |  | 200 pM | 
 | [D-Phe^12 ]bombesin | inhibited |  | 
< 0.5 mg/kg | COC(=O)[C@H](CC(C)C)NC(=O)[C@H](Cc1c[nH]cn1)NC(=O)[C@@H](C)NC(=O)[C@@H](NC(=O)[C@H](C)NC(=O)[C@H](Cc1c[nH]c2ccccc12)NC(=O)[C@H](Cc1c[nH]cn1)NC(=O)c1ccncc1)C(C)C [4-Pyridyl--CO--His--Trp--Ala--Val--D--Ala--His--Leu--OMe] (Isonicotinoyl-HWAV[dA]HL-OMe) |  | 700 pM | IC50 [4]: 1500 pM
 | [Tyr^4, D--Phe^12 ]bombesin | inhibited |  | 
 | [D--Glp^7, D--Ala^11, Ala^14 ]bombesin (7-14) |  |  | antagonism of bombesin-induced hypothermia [5]: partial antagonist
